Assay [1] deals with rats with middle cerebral artery occlusion (MCAO). The assay is described as follows: Hindlimb placing test, MCAO rats, dose escalation study (Example 17). The class given is in vivo, Sprague Dawley rat. An excerpt:
Limb Placing: Evaluated at Day −1 (pre-operation), Day 1, Day 7, Day 14, Day 21, Day 28, Day 30, Day 32, Day 42, Day 44, Day 46, Day 56, Day 58, Day 60. The limb placing tests were divided into forelimb and hindlimb tests. For the forelimb-placing test, the examiner held the rat close to a tabletop and scored the rat's ability to place the forelimb on the tabletop in response to whisker, visual, tactile, or proprioceptive stimulation. Similarly, for the hindlimb placing test, the examiner assessed the rat's ability to place the hindlimb on the tabletop in response to tactile and proprioceptive stimulation. Together, these tests reflect function and recovery in the sensorimotor systems (De Ryck et al., Brain Res 1992; 573:44-60). Separate sub-scores were obtained for each mode of sensory input and added to give total scores (for the forelimb placing test: 0=normal, 12=maximally impaired; for the hindlimb placing test: 0=normal; 6=maximally impaired). Scores were given in half-point increments (see below). Typically, there is a slow and steady recovery of limb placing behavior during the first month after stroke.
Hindlimb placing test (0-6): • tactile placing (dorsal (0-2), lateral (0-2)) • proprioceptive placing (0-2).
For each subtest, animals are scored as followed: • 0.0=immediate response • 0.5=response within 2 seconds • 1.0=response of 2-3 seconds • 1.5=response of >3 seconds • 2.0=no response
4-AP was evaluated for its ability to promote functional sensorimotor improvement following ischemic stroke in rats with stable motor deficits at times remote from their ischemic events. The animal model of ischemic stroke, i.e., the MCAO model, used in this example is the same as the animal model described in Example 2.
In the MCAO model recovery begins to plateau by 4 weeks after MCAO, at which time there are still measurable deficits in sensorimotor function. However, 4 weeks after MCAO there may still be slow continued endogenous recovery.
4-aminopyridine was dissolved in water for injection (WFI, Cellgro) and sterile filtered. Solutions of 0.25 mg/mL, 0.5 mg/mL and 1.0 mg/mL of 4-aminopyridine were delivered by gastric gavage at 2 mL/kg for final doses of 0.5 mg/kg, 1 mg/kg or 2.0 mg/kg respectively. Vehicle control treatment was WFI delivered at 2 mL/kg by gastric gavage. Starting on Day 56 after MCAO, animals received gastric gavage of solutions (2 mL/kg) approximately 12 hours apart. The vehicle control group was treated with water for all doses on Days 56-65. For the treated group, six doses of 4-aminopyridine at 0.5 mg/kg were delivered over Days 56-59, followed by six doses at 1.0 mg/kg over Days 59-62 and six doses at 2.0 mg/kg over Days 62-65. Animals in all groups were not treated during Days 66-70. p.o.=par oral. […]

Assay [2] has the same test system. Kind of assay: Cylinder test, overall asymmetry (%), MCAO rats (Example 2). It is filed as in vivo, Sprague Dawley rat. The method, then:
Dosing and Treatment: Rats were treated in accordance with the dosing schedule shown in Tables 2A, 2B, 3 and FIG. 2, with each Phase being a two week period of time. A solution of 4-AP was used in this experiment. Dosing was started at 4 weeks after ischemic event. 4-aminopyridine was dissolved in water for injection (WFI, Cellgro) and sterile filtered. […] Vehicle control treatment was WFI delivered at 2 mL/kg by gastric gavage. […] Starting on day 30 after MCAO (Day 30, start of phase 1), the animals received gavage dosing of solutions (2 mL/kg) approximately 12 hours apart, for a total of five doses. The same schedule was repeated with different treatment on Day 44 and Day 58 for phase 2 and 3 of the study, respectively. Animals were not treated during the 10 days between phases (washout period). Treatment groups: Dosing was started 4 weeks after MCAO surgery. During these 4 weeks, weekly behavioral assessments, as defined below, were performed. Two dose levels of 4-AP plus vehicle control were assessed, with treatment starting at 4 weeks after ischemic event. […] Animals were given the first dose and behavioral assessments were performed starting 60 minutes after dosing. Animals then received the second dose that day at the appropriate time and b.i.d (preferably every 12 hours) thereafter for 2 more days (3 total days of dosing, 5 total doses). One hour after the 5th dose, animals were subjected to behavioral assessments as defined below. Following the final behavioral assessment, drug was withdrawn for 10 or 11 days, behavior was re-assessed, and then animals were re-challenged with a cross-over treatment (Phase 2 of Table 2B) as described in Tables 2A, 2B and 3, followed by the same behavioral testing and dosing regimen. This cross-over was repeated one more time as well (Phase 3 of Table 2B) (see FIG. 2). Cylinder Test: Evaluation was performed at Day −1 (pre-operation), Day 7, Day 21, Day 30, Day 32, Day 44, Day 46, Day 58, Day 60. This test assessed limb use asymmetry. Rats were placed in a transparent cylinder (20 cm in diameter and 30 cm in height) for 3-6 minutes. A mirror was placed behind the cylinder to determine forelimb movements when animal was turned away from the camera. […] Simultaneous use of both left and right forelimbs while contacting the wall during a full rear was also scored. A total number of 20 forelimb placings were counted during a trial. Data was expressed in terms of percent use of the non-impaired and or impaired forelimb relative to the total number of limb use observations for wall movements.

The structures appear in SMILES notation. Values joined by “and” are separate entries in the source; they are usually repeats but may differ in a detail not shown here. Identical values can stand only once.

For the compound `Nc1ccncc1` [4-aminopyridine], the “Hind limb placing score compared to vehicle” value in assay [1] (0.5 mg/kg b.i.d. p.o., Day 59) was “improved with the low dose but did not reach significance”. Moreover, in assay [1] (1 mg/kg b.i.d. p.o., Day 62, p<0.05), the “Hind limb placing compared to vehicle” value is recorded as “measureable improvement”. Moreover, the “Hind limb function compared to vehicle” value in assay [1] (2 mg/kg b.i.d. p.o., Day 65, p<0.001) is “significant improvements”. Moreover, in assay [1] (Day 70, p<0.05), the “Hind limb score after treatment withdrawn for 5 days” value is recorded as “remained greater than the vehicle treated group”. The “Cylinder Test Score (Overall Asymmetry (%)) Group 2, D30” value in assay [2] (Group 2, D30, treatment phase 1 (low-dose 4-AP), individual animals and Mean (N=15), listed as 4-AP) was 0.00% and 75.00% and 23.33% and 20.00% and 6.90%. In assay [2] (Group 2, D32, treatment phase 1 (low-dose 4-AP), individual animals and Mean (N=15), listed as 4-AP), the “Cylinder Test Score (Overall Asymmetry (%)) Group 2, D32” value is 33.33% and 16.00% and 20.00% and 50.00% and 0.00%. Besides, the “Cylinder Test Score (Overall Asymmetry (%)) Group 2, D58” value in assay [2] (Group 2, D58, treatment phase 3 (high-dose 4-AP), individual animals and Mean (N=12), listed as 4-AP) is 50.00% and 30.00% and 88.00% and 33.33%. Moreover, the “Cylinder Test Score (Overall Asymmetry (%)) Group 2, D60” value in assay [2] (Group 2, D60, treatment phase 3 (high-dose 4-AP), individual animals and Mean (N=14), listed as 4-AP) is 64.00% and 20.00% and 10.00% and 0.00% (3×) and −100.00% (2×). The “Cylinder Test Score (Overall Asymmetry (%)) Group 3, D44” value in assay [2] (Group 3, D44, treatment phase 2 (high-dose 4-AP), individual animals and Mean (N=13), listed as 4-AP) was 40.00% and 20.00% and 100.00% and 0.00%. Moreover, the “Cylinder Test Score (Overall Asymmetry (%)) Group 3, D46” value in assay [2] (Group 3, D46, treatment phase 2 (high-dose 4-AP), individual animals and Mean (N=13), listed as 4-AP) is 50.00% and −60.00% and 0.00% and 6.90%. Besides, the “Cylinder Test Score (Overall Asymmetry (%)) Group 3, D58” value in assay [2] (Group 3, D58, treatment phase 3 (low-dose 4-AP), individual animals and Mean (N=15), listed as 4-AP) is 0.00% (2×) and 5.00%. Further, the “Cylinder Test Score (Overall Asymmetry (%)) Group 3, D60” value in assay [2] (Group 3, D60, treatment phase 3 (low-dose 4-AP), individual animals and Mean (N=15), listed as 4-AP) was −25.00% and 0.00% (2×) and 16.00%. Also, the “Effect on body symmetry and coordination, cylinder test (FIG. 7)” value in assay [2] (reversible and dose-dependent) was “effective to improve body symmetry and coordination”.

The values are drawn from patent publication US20160067232A1, “METHODS FOR TREATING A STROKE-RELATED SENSORIMOTOR IMPAIRMENT USING AMINOPYRIDINES” (Acorda Therapeutics, Inc., priority 2011, published 2016).
